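Compound exposure: 48 hours, 5 concentrations, 96-well plates. GI50: concentration for 50% inhibition of growth. At the TGI there is no net growth.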
Key:
Experiment in all cases: inhibition of tumour cell growth, NCI panel, 48 h
786-0 renal = tested on: 786-0 renal
A498 renal = tested on: A498 renal
A549 NSCLC = tested on: A549 NSCLC
ACHN renal = tested on: ACHN renal
BT-549 breast = tested on: BT-549 breast
CAKI-1 renal = tested on: CAKI-1 renal
CCRF-CEM leukemia = tested on: CCRF-CEM leukemia
COLO 205 colon = tested on: COLO 205 colon
DU-145 prostate = tested on: DU-145 prostate
HCC-2998 colon = tested on: HCC-2998 colon
HCT-116 colon = tested on: HCT-116 colon
HCT-15 colon = tested on: HCT-15 colon
HL-60(TB) leukemia = tested on: HL-60(TB) leukemia
HOP-62 NSCLC = tested on: HOP-62 NSCLC
HOP-92 NSCLC = tested on: HOP-92 NSCLC
HS 578T breast = tested on: HS 578T breast
HT29 colon = tested on: HT29 colon
IGROV1 ovarian = tested on: IGROV1 ovarian
K-562 leukemia = tested on: K-562 leukemia
KM12 colon = tested on: KM12 colon
LOX IMVI melanoma = tested on: LOX IMVI melanoma
M14 melanoma = tested on: M14 melanoma
MALME-3M melanoma = tested on: MALME-3M melanoma
MCF7 breast = tested on: MCF7 breast
MDA-MB-231 breast = tested on: MDA-MB-231 breast
MDA-MB-435 = tested on: MDA-MB-435
MOLT-4 leukemia = tested on: MOLT-4 leukemia
NCI-H226 lung = tested on: NCI-H226 lung
NCI-H23 lung = tested on: NCI-H23 lung
NCI-H460 lung = tested on: NCI-H460 lung
NCI-H522 lung = tested on: NCI-H522 lung
NCI/ADR-RES ovarian = tested on: NCI/ADR-RES ovarian
OVCAR-3 ovarian = tested on: OVCAR-3 ovarian
OVCAR-4 ovarian = tested on: OVCAR-4 ovarian
OVCAR-5 ovarian = tested on: OVCAR-5 ovarian
OVCAR-8 ovarian = tested on: OVCAR-8 ovarian
PC-3 prostate = tested on: PC-3 prostate
RPMI-8226 leukemia = tested on: RPMI-8226 leukemia
RXF 393 renal = tested on: RXF 393 renal
SF-268 CNS = tested on: SF-268 CNS
SF-295 CNS = tested on: SF-295 CNS
SF-539 CNS = tested on: SF-539 CNS
SK-MEL-2 melanoma = tested on: SK-MEL-2 melanoma
SK-MEL-28 melanoma = tested on: SK-MEL-28 melanoma
SK-MEL-5 melanoma = tested on: SK-MEL-5 melanoma
SK-OV-3 ovarian = tested on: SK-OV-3 ovarian
SN12C renal = tested on: SN12C renal
SNB-19 CNS = tested on: SNB-19 CNS
SNB-75 CNS = tested on: SNB-75 CNS
SR leukemia = tested on: SR leukemia
SW-620 colon = tested on: SW-620 colon
T-47D breast = tested on: T-47D breast
TK-10 renal = tested on: TK-10 renal
U251 CNS = tested on: U251 CNS
UACC-257 melanoma = tested on: UACC-257 melanoma
UACC-62 melanoma = tested on: UACC-62 melanoma
UO-31 renal = tested on: UO-31 renal

Molecule `OCc1ccc(N2CCCC2)cc1Cl` has a GI50 (786-0 renal) of 27.5 µM, a TGI (786-0 renal) of over 100 µM and a GI50 (A498 renal) of 0.147 µM. For the same molecule, the TGI (A498 renal) was 0.289 µM, the GI50 (A549 NSCLC) was 23.2 µM and the TGI (A549 NSCLC) was over 100 µM. The GI50 (ACHN renal) was 29.2 µM, the TGI (ACHN renal) was over 75.3 µM and the GI50 (BT-549 breast) was 32 µM. For the same molecule, the TGI (BT-549 breast) was over 100 µM, the GI50 (CAKI-1 renal) was 14.3 µM and the TGI (CAKI-1 renal) was 50.3 µM. It also gave a GI50 (CCRF-CEM leukemia) of 31.3 µM, a TGI (CCRF-CEM leukemia) of over 100 µM and a GI50 (COLO 205 colon) of 2.01 µM. For the same molecule, the TGI (COLO 205 colon) was 5.11 µM, the GI50 (DU-145 prostate) was 34.4 µM and the TGI (DU-145 prostate) was over 100 µM. It also gave a GI50 (HCC-2998 colon) of 15.7 µM, a TGI (HCC-2998 colon) of 69.9 µM and a GI50 (HCT-116 colon) of 1.6 µM. It also gave a TGI (HCT-116 colon) of over 100 µM, a GI50 (HCT-15 colon) of 31 µM and a TGI (HCT-15 colon) of over 100 µM. For the same molecule, the GI50 (HL-60(TB) leukemia) was 13.7 µM, the TGI (HL-60(TB) leukemia) was over 75.6 µM and the GI50 (HOP-62 NSCLC) was 10.2 µM. It also gave a TGI (HOP-62 NSCLC) of over 100 µM, a GI50 (HOP-92 NSCLC) of 2.22 µM and a TGI (HOP-92 NSCLC) of 24.2 µM. For the same molecule, the GI50 (HS 578T breast) was over 50 µM, the TGI (HS 578T breast) was over 100 µM and the GI50 (HT29 colon) was 7.9 µM. The TGI (HT29 colon) was 76.4 µM, the GI50 (IGROV1 ovarian) was 0.452 µM and the TGI (IGROV1 ovarian) was 2 µM. It also gave a GI50 (K-562 leukemia) of 8.18 µM, a TGI (K-562 leukemia) of over 100 µM and a GI50 (KM12 colon) of over 100 µM. For the same molecule, the TGI (KM12 colon) was over 100 µM, the GI50 (LOX IMVI melanoma) was over 86.9 µM and the TGI (LOX IMVI melanoma) was over 100 µM. It also gave a GI50 (M14 melanoma) of over 100 µM, a TGI (M14 melanoma) of over 100 µM and a GI50 (MALME-3M melanoma) of 27.3 µM. For the same molecule, the TGI (MALME-3M melanoma) was 73 µM, the GI50 (MCF7 breast) was 1.95 µM and the TGI (MCF7 breast) was over 61.9 µM. It also gave a GI50 (MDA-MB-231 breast) of over 79.4 µM, a TGI (MDA-MB-231 breast) of over 100 µM and a GI50 (MDA-MB-435) of over 100 µM. For the same molecule, the TGI (MDA-MB-435) was over 100 µM, the GI50 (MOLT-4 leukemia) was 36.9 µM and the TGI (MOLT-4 leukemia) was over 100 µM. For the same molecule, the GI50 (NCI-H226 lung) was 0.146 µM, the TGI (NCI-H226 lung) was 0.365 µM and the GI50 (NCI-H23 lung) was 27.5 µM. The TGI (NCI-H23 lung) was over 100 µM, the GI50 (NCI-H460 lung) was 3.55 µM and the TGI (NCI-H460 lung) was 28.5 µM. For the same molecule, the GI50 (NCI-H522 lung) was 14.5 µM, the TGI (NCI-H522 lung) was 32.5 µM and the GI50 (NCI/ADR-RES ovarian) was 34.9 µM. It also gave a TGI (NCI/ADR-RES ovarian) of over 100 µM, a GI50 (OVCAR-3 ovarian) of 2.18 µM and a TGI (OVCAR-3 ovarian) of 7.25 µM. It also gave a GI50 (OVCAR-4 ovarian) of 1.83 µM, a TGI (OVCAR-4 ovarian) of 12.3 µM and a GI50 (OVCAR-5 ovarian) of 0.148 µM. The TGI (OVCAR-5 ovarian) was 0.498 µM, the GI50 (OVCAR-8 ovarian) was 46 µM and the TGI (OVCAR-8 ovarian) was over 100 µM. It also gave a GI50 (PC-3 prostate) of over 84.7 µM, a TGI (PC-3 prostate) of over 100 µM and a GI50 (RPMI-8226 leukemia) of 6.22 µM. The TGI (RPMI-8226 leukemia) was over 84.5 µM, the GI50 (RXF 393 renal) was 9.57 µM and the TGI (RXF 393 renal) was 27.1 µM. The GI50 (SF-268 CNS) was over 61.3 µM, the TGI (SF-268 CNS) was over 100 µM and the GI50 (SF-295 CNS) was 1.78 µM. It also gave a TGI (SF-295 CNS) of 37.4 µM, a GI50 (SF-539 CNS) of over 58.7 µM and a TGI (SF-539 CNS) of over 100 µM. The GI50 (SK-MEL-2 melanoma) was 12.9 µM, the TGI (SK-MEL-2 melanoma) was 51.5 µM and the GI50 (SK-MEL-28 melanoma) was over 100 µM. It also gave a TGI (SK-MEL-28 melanoma) of over 100 µM, a GI50 (SK-MEL-5 melanoma) of 18.7 µM and a TGI (SK-MEL-5 melanoma) of over 75.5 µM. The GI50 (SK-OV-3 ovarian) was 27.3 µM, the TGI (SK-OV-3 ovarian) was over 90.6 µM and the GI50 (SN12C renal) was 47.6 µM. For the same molecule, the TGI (SN12C renal) was over 100 µM, the GI50 (SNB-19 CNS) was over 100 µM and the TGI (SNB-19 CNS) was over 100 µM. The GI50 (SNB-75 CNS) was 24.5 µM, the TGI (SNB-75 CNS) was over 100 µM and the GI50 (SR leukemia) was 46.2 µM. For the same molecule, the TGI (SR leukemia) was over 100 µM, the GI50 (SW-620 colon) was 10.7 µM and the TGI (SW-620 colon) was over 100 µM. It also gave a GI50 (T-47D breast) of 0.538 µM, a TGI (T-47D breast) of 2.88 µM and a GI50 (TK-10 renal) of 0.201 µM. For the same molecule, the TGI (TK-10 renal) was 0.556 µM, the GI50 (U251 CNS) was 5.52 µM and the TGI (U251 CNS) was over 60.8 µM. For the same molecule, the GI50 (UACC-257 melanoma) was 0.338 µM, the TGI (UACC-257 melanoma) was 1.28 µM and the GI50 (UACC-62 melanoma) was 0.879 µM. The TGI (UACC-62 melanoma) was 4.28 µM, the GI50 (UO-31 renal) was 17.2 µM and the TGI (UO-31 renal) was 50 µM.

From PubChem BioAssay (NCI)
